# Test results reported in patent US6979685B1, “Cycloalkyl amine compounds and uses thereof” (Cardiome Pharma Corp., priority 1999, dated 2005).
# What was measured:
# [1] = system: cardiac arrhythmias in conscious rats subjected to coronary artery occlusion; test: Antiarrhythmic efficacy: arrhythmias induced by coronary artery occlusion in conscious rats; format: in vivo, rat; conditions: infusion rate which reduces the arrhythmia score to 50% of that of vehicle-treated animals
# Experimental: Antiarrhythmic efficacy was assessed by investigating the effect of a compound on the incidence of cardiac arrhythmias in conscious rats subjected to coronary artery occlusion. Rats weighing 200–300 gms were subjected to preparative surgery and assigned to groups in a random block design. In each case, the animal was anesthetized with halothane during surgical preparation. The left femoral artery was cannulated for measurement of mean arterial blood pressure and withdrawal of blood samples. The left femoral vein was also cannulated for injection of drugs. The thoracic cavity was opened and a polyethylene occluder loosely placed around the left anterior descending coronary artery. The thoracic cavity was then closed. ECG was recorded by insertion of electrodes placed along the anatomical axis of the heart. All cannulae and electrode leads were exteriorized in the mid scapular region. […] ECG, arrhythmias, blood pressure, heart rate and mortality were monitored for 30 minutes after occlusion. Arrhythmias were recorded as ventricular tachycardia (VT) and ventricular fibrillation (VF) and scored according to Curtis, M. J. and Walker, M. J. A., Cardiovasc. […]
# Occlusion is associated with increases in R-wave height and “S-T” segment elevation: and an occluded zone (measured after death by cardiogreen dye perfusion) in the range of 25%–50% of total left-ventricular weight. […]
# [2] = system: ECG parameters (cardiac sodium channel / potassium channel blockage); test: Measurement of ECG parameters in pentobarbital anesthetized rats; format: in vivo, rat; conditions: bolus injection; for ED25 QT: dose producing a 25% increase in Q-T interval; for ED25 QRS: dose producing a 25% increase in QRS interval
# Experimental: Rats weighing 200–250 gms were used in this example. Animals were anesthetized with 60 mg/kg pentobarbital i.p. The carotid artery and jugular vein were cannulated for measurement of blood pressure and drug injection, respectively. ECG was recorded by insertion of electrodes placed along the anatomical axis of the heart. All compounds were given as bolus injections.
# Various ECG parameters were measured. Table 4 describes the results of the tests as ED25 (micromol/kg) which are the doses required to produce a 25% increase in the parameter measured (NE=not estimated). The increases in P—R interval and QRS interval indicate cardiac sodium channel blockage while the increase in Q-T interval indicates ancillary cardiac potassium channel blockage which is the property of a type 1a antiarrhythmic.
# [3] = system: cardiac sodium channel blockage (left ventricle square wave stimulation); test: Assessment of sodium channel blockage by electrical stimulation of the left ventricle in rats; format: in vivo; conditions: infusion rate eliciting a 25% increase from control; rat left ventricle stimulation
# Experimental: Rats were prepared according to the preceding procedure. Two silver stimulating electrodes were inserted through the chest wall and implanted in the left ventricle. Square wave stimulation was used to determine threshold current for capture, ventricular fibrillation threshold current, and effective refractory period (Howard, P. G. and Walker, M. J. A., Proc. West. Pharmacol. Soc. 33:123–127 (1990)). Table 5 contains ED25 values for these indices of cardiac sodium channel blockage, where the ED25 is the infusion rate in micromol/kg/minute of compound required to elicit a 25% increase from control. The increases in refractoriness indicate ancillary blockage of potassium channels. The threshold current for capture is represented by “It”. The fibrillation threshold current is represented by “VFT”. The effective refracting period is represented by “ERP”.
SMILES,ED50AA [1] [µmol/kg/min],ED25 QT [2] [µmol/kg],ED25 QRS [2] [µmol/kg],ED25 ERP (effective refractory period) [3] [µmol/kg/min],ED25 It (threshold current for capture) [3] [µmol/kg/min],ED25 PR ([2]; dose producing a 25% increase in P-R interval) [µmol/kg],ED25 VFT (fibrillation threshold current) [3] [µmol/kg/min]
"Cl.O=C1CCN(C2CCCC2OCCc2c(Cl)cccc2Cl)C1 [compound 2, (1R,2R)/(1S,2S)-2-(3-KETOPYRROLIDINYL)-1-(2,6-DICHLOROPHENETHOXY)CYCLOPENTANE MONOHYDROCHLORIDE]",4,3.3,9,2.6,10,–,–
"Cl.c1ccc2cc(CCOC3CCCC3N3CCOCC3)ccc2c1 [compound 1, (1R,2R)/(1S,2S)-2-(4-MORPHOLINYL)-1-(2-NAPHTHALENETHOXY)CYCLOPENTANE MONOHYDROCHLORIDE]",1.5,2.5,37,2.5,3.3,45,1.3
